Assay results from patent US20060069132A1, “Azolecarboxamide herbicides” (priority 2004, published 2006).

Columns and labels:
morningglory [1] = test: Test A pre-/postemergence herbicide test; assay type: in vivo, Ipomoea spp.
Summary of the method: (§1)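 Visual injury rating on a 0–100 scale (0 no effect, 100 complete control) versus untreated controls, about ten days after treatment in greenhouse. Pre: directed soil spray onto seeded sandy loam. Post: spray to runoff on plants 2–10 cm tall at one- to two-leaf stage.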

large crabgrass [2] = test: Test A pre-/postemergence herbicide test; assay type: in vivo, Digitaria sanguinalis
Summary of the method: as §1

barnyardgrass [3] = test: Test A pre-/postemergence herbicide test; assay type: in vivo, Echinochloa crus-galli
Summary of the method: as §1

large crabgrass [4] = test: Test B pre-/postemergence herbicide test; assay type: in vivo, Digitaria sanguinalis; details: for Crabgrass, Large plant response rating: postemergence
Summary of the method: (§2)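 Greenhouse pot assay with simultaneous preemergence (treated seed) and postemergence (2–18 cm seedlings) applications of surfactant-containing, non-phytotoxic solvent formulations. Response scored visually 13–15 days later on a 0–100 scale, 100 meaning complete control.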

velvetleaf [5] = test: Test B pre-/postemergence herbicide test; assay type: in vivo, Abutilon theophrasti; details: for Velvetleaf plant response rating: postemergence
Summary of the method: as §2

wild oat = test: Test B postemergence herbicide test; assay type: in vivo, Avena fatua; details: postemergence
Summary of the method: (§3)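 Treated at 2-leaf (paddy) or 1–4-leaf, 2–18 cm (postemergence); greenhouse 13–15 d; visual score vs control, 0 none to 100 complete control; dash = not tested.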

velvetleaf [6] = test: Test A pre-/postemergence herbicide test; assay type: in vivo, Abutilon theophrasti
Summary of the method: as §1

lambsquarters = test: Test B pre-/postemergence herbicide test; assay type: in vivo, Chenopodium album; details: for Lambsquarters plant response rating: postemergence
Summary of the method: as §2

Surinam grass = test: Test B pre-/postemergence herbicide test; assay type: in vivo, Urochloa decumbens; details: for Surinam Grass plant response rating: postemergence
Summary of the method: as §2

redroot pigweed = test: Test A pre-/postemergence herbicide test; assay type: in vivo, Amaranthus retroflexus
Summary of the method: as §1

pigweed = test: Test B pre-/postemergence herbicide test; assay type: in vivo, Amaranthus retroflexus; details: for Pigweed plant response rating: postemergence
Summary of the method: as §2

cocklebur = test: Test B pre-/postemergence herbicide test; assay type: in vivo, Xanthium strumarium; details: for Cocklebur plant response rating: postemergence
Summary of the method: (§4)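 Plants compared with untreated controls 13–15 days post-treatment and given a visual 0–100 injury score. Applications: preemergence to seeds; postemergence at 1- to 4-leaf (2–18 cm); paddy species flooded, 2-leaf stage. Vehicle non-phytotoxic, surfactant included.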

ducksalad = test: Test B flooded paddy test; assay type: in vivo, Heteranthera limosa; details: 1000 g ai/ha, scale 0 to 100 (0 no effect, 100 complete control)
Summary of the method: (§5)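 Formulated test chemicals went onto postemergence plants measuring 2 to 18 cm, at one to four leaves. For the paddy assay, species had reached two leaves. Scoring took place 13–15 days later by eye, relative to untreated plants, using 0 for no effect up to 100 for full control.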

wheat = test: Test B postemergence herbicide test; assay type: in vivo, Triticum aestivum; design: key to Wheat plant response rating: 0 = no effect, 100 = complete control; details: postemergence
Summary of the method: as §3

morningglory [7] = test: Test B pre-/postemergence herbicide test; assay type: in vivo, Ipomoea coccinea; details: for Morningglory plant response rating: postemergence
Summary of the method: as §4

giant foxtail [8] = test: Test B pre-/postemergence herbicide test; assay type: in vivo, Setaria faberi; details: for Foxtail, Giant plant response rating: postemergence
Summary of the method: as §2

blackgrass = test: Test B postemergence herbicide test; assay type: in vivo, Alopecurus myosuroides; details: postemergence
Summary of the method: as §5

[9] = test system: small flower umbrella sedge; test: Test B flooded paddy test; assay type: in vivo, Cyperus difformis; details: 1000 g ai/ha, scale 0 to 100 (0 no effect, 100 complete control)
Summary of the method: as §5

barnyardgrass [10] = test: Test B flooded paddy test; assay type: in vivo, Echinochloa crus-galli; details: 1000 g ai/ha, scale 0 to 100 (0 no effect, 100 complete control)
Summary of the method: as §5

rice [11] = test: Test B pre-/postemergence herbicide test; assay type: in vivo, Oryza sativa; details: preemergence
Summary of the method: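 Species tested were Echinochloa crus-galli, Ipomoea coccinea, Xanthium strumarium and Oryza sativa, treated both before emergence and at the 1- to 4-leaf stage; rice and barnyardgrass were also tested under flooding at 2 leaves. Greenhouse incubation lasted 13–15 days before visual 0–100 scoring.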

giant foxtail [12] = test: Test A pre-/postemergence herbicide test; assay type: in vivo, Setaria faberi
Summary of the method: as §1

barnyardgrass [13] = test: Test B pre-/postemergence herbicide test; assay type: in vivo, Echinochloa crus-galli; details: for Barnyardgrass plant response rating: postemergence
Summary of the method: as §4

corn = test: Test B pre-/postemergence herbicide test; assay type: in vivo, Zea mays; details: for Corn plant response rating: postemergence
Summary of the method: as §2

rice [14] = test: Test B flooded paddy test; assay type: in vivo, Oryza sativa; details: 1000 g ai/ha, scale 0 to 100 (0 no effect, 100 complete control)
Summary of the method: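 Greenhouse test; postemergence application to plants at 1–4 leaves (2–18 cm); paddy species at 2 leaves; evaluated visually vs controls at 13–15 days; scale 0–100 (100 = complete control).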

[15] = Postemergence, 500 g ai/ha, 0 to 100 scale, 0 no effect, 100 complete control
[16] = Postemergence, 2000 g ai/ha, 0 to 100 scale, 0 no effect, 100 complete control
[17] = Preemergence, 2000 g ai/ha, visual rating, 0 to 100 scale (0 no effect, 100 complete control)
[18] = preemergence, 500 g ai/ha, visual injury, 0 to 100 scale (0 no effect, 100 complete control)
[19] = 125 g ai/ha, 0 is no effect, 100 is complete control, preemergence
[20] = 125 g ai/ha, visual rating, scale 0 (no effect) to 100 (complete control)
[21] = 500 g ai/ha, visual rating, 0 = no effect, 100 = complete control, preemergence
[22] = 500 g ai/ha, scale 0 to 100, 0 is no effect, 100 is complete control

CCSCNC(=O)c1cccc(NC(=O)c2cc(C(C)(C)C)nn2CC)c1 [Compound 329]
Morningglory plant response rating (morningglory [1]; [15]): 10
Plant response rating, Morningglory (morningglory [1]; [16]): 20
Morningglory plant response rating (morningglory [1]; [17]): 10
Morningglory plant response rating (morningglory [1]; [18]): 0
Crabgrass, Large plant response rating (large crabgrass [2]; [15]): 10
Plant response rating, Crabgrass, Large (large crabgrass [2]; [16]): 5
Crabgrass, Large plant response rating (large crabgrass [2]; [17]): 0
Crabgrass, Large plant response rating (large crabgrass [2]; [18]): 0
Barnyardgrass plant response rating (barnyardgrass [3]; [15]): 15
Plant response rating, Barnyardgrass (barnyardgrass [3]; [16]): 20
Barnyardgrass plant response rating (barnyardgrass [3]; [17]): 5
Barnyardgrass plant response rating (barnyardgrass [3]; [18]): 0
Plant response rating (0 to 100 scale), Crabgrass, Large (large crabgrass [4]; [19]): 0
Crabgrass, Large plant response rating (large crabgrass [4]; [20]): 0
Plant response rating, Crabgrass, Large (large crabgrass [4]; [21]): 0
Crabgrass, Large plant response rating (large crabgrass [4]; [22]): 10
Plant response rating (0 to 100 scale), Velvetleaf (velvetleaf [5]; [19]): 0
Velvetleaf plant response rating (velvetleaf [5]; [20]): 10
Plant response rating, Velvetleaf (velvetleaf [5]; [21]): 0
Velvetleaf plant response rating (velvetleaf [5]; [22]): 30
Oat, Wild plant response rating (wild oat; [20]): 20
Oat, Wild plant response rating (wild oat; [22]): 30
Velvetleaf plant response rating (velvetleaf [6]; [15]): 10
Plant response rating, Velvetleaf (velvetleaf [6]; [16]): 25
Velvetleaf plant response rating (velvetleaf [6]; [17]): 10
Velvetleaf plant response rating (velvetleaf [6]; [18]): 0
Plant response rating (0 to 100 scale), Lambsquarters (lambsquarters; [19]): 0
Lambsquarters plant response rating (lambsquarters; [20]): 30
Lambsquarters plant response rating (lambsquarters; [22]): 70
Plant response rating (0 to 100 scale), Surinam Grass (Surinam grass; [19]): 0
Surinam Grass plant response rating (Surinam grass; [20]): 10
Plant response rating, Surinam Grass (Surinam grass; [21]): 0
Surinam Grass plant response rating (Surinam grass; [22]): 20
Pigweed plant response rating (redroot pigweed; [15]): 10
Plant response rating, Pigweed (redroot pigweed; [16]): 45
Pigweed plant response rating (redroot pigweed; [17]): 10
Pigweed plant response rating (redroot pigweed; [18]): 5
Plant response rating (0 to 100 scale), Pigweed (pigweed; [19]): 0
Pigweed plant response rating (pigweed; [20]): 50
Plant response rating, Pigweed (pigweed; [21]): 0
Pigweed plant response rating (pigweed; [22]): 80
Plant response rating (0 to 100 scale), Cocklebur (cocklebur; [19]): 0
Cocklebur plant response rating (cocklebur; [20]): 0
Plant response rating, Cocklebur (cocklebur; [21]): 0
Cocklebur plant response rating (cocklebur; [22]): 30
Ducksalad plant response rating (ducksalad): 0
Wheat plant response rating (wheat; [20]): 20
Wheat plant response rating (wheat; [22]): 30
Plant response rating (0 to 100 scale), Morningglory (morningglory [7]; [19]): 0
Morningglory plant response rating (morningglory [7]; [20]): 0
Plant response rating, Morningglory (morningglory [7]; [21]): 0
Morningglory plant response rating (morningglory [7]; [22]): 20
Plant response rating (0 to 100 scale), Foxtail, Giant (giant foxtail [8]; [19]): 0
Foxtail, Giant plant response rating (giant foxtail [8]; [20]): 10
Plant response rating, Foxtail, Giant (giant foxtail [8]; [21]): 0
Foxtail, Giant plant response rating (giant foxtail [8]; [22]): 30
Blackgrass plant response rating (blackgrass; [20]): 20
Blackgrass plant response rating (blackgrass; [22]): 20
Sedge, Umbrella plant response rating [9]: 0
Barnyardgrass plant response rating (barnyardgrass [10]): 0
Plant response rating (0 to 100 scale), Rice (rice [11]; 125 g ai/ha, 0 is no effect, 100 is complete control): 0
Plant response rating, Rice (rice [11]; 500 g ai/ha, visual rating, 0 = no effect, 100 = complete control): 0
Foxtail, Giant plant response rating (giant foxtail [12]; [15]): 10
Plant response rating, Foxtail, Giant (giant foxtail [12]; [16]): 20
Foxtail, Giant plant response rating (giant foxtail [12]; [17]): 5
Foxtail, Giant plant response rating (giant foxtail [12]; [18]): 0
Plant response rating (0 to 100 scale), Barnyardgrass (barnyardgrass [13]; [19]): 0
Barnyardgrass plant response rating (barnyardgrass [13]; [20]): 0
Plant response rating, Barnyardgrass (barnyardgrass [13]; [21]): 0
Barnyardgrass plant response rating (barnyardgrass [13]; [22]): 10
Plant response rating (0 to 100 scale), Corn (corn; [19]): 0
Corn plant response rating (corn; [20]): 0
Plant response rating, Corn (corn; [21]): 0
Corn plant response rating (corn; [22]): 20
Rice plant response rating (rice [14]): 0
